Results taken from US20220169598A1, “HALOGENATED PHENYLSULFONAMIDE HYDROXAMIC ACID COMPOUNDS, COMPOSITIONS AND USES THEREOF AS SELECTIVE HDAC6 INHIBITORS” (2681603 ONTARIO INC., priority 2019, published 2022).
Like-named read-outs stand apart in the source and are kept apart here. One block for each molecule: values may come before it.

Legend:
[1] = Plasma stability by LC-MS; type: in vitro ADME; conditions: mouse plasma
Description: The stability of select compounds of the application in plasma was assessed quantitatively through LC-MS and the results are shown in Table 6.

MV-4-11 = experiment: Cytotoxicity in cell lines; type: cell-based; conditions: Homo sapiens, read-out: IC50 MV-411
Description: (§1) The cytotoxicity of exemplary compounds of the application was tested in multiple cell lines including MV-4-11, MOLM-13, MCF-7, MRC9, K562 and MM.1S. The therapeutic index was evaluated by determining the toxicity of the exemplary compounds in healthy cell lines including fibroblasts and HUVEC.

MOLM-13 = experiment: Cytotoxicity in cell lines; type: cell-based; conditions: Homo sapiens, MOLM-13, read-out: IC50 MOLM-13
Description: as §1

half-life [1]: 2.35 h | Remaining Percentage (%) 0 min [1]: 100% | Remaining Percentage (%) 15 min [1]: 88.6% | Remaining Percentage (%) 30 min [1]: 78.8% | Remaining Percentage (%) 45 min [1]: 75.0% | Remaining Percentage (%) 60 min [1]: 72.1% | Remaining Percentage (%) 120 min [1]: 53.8%
Structure (SMILES): O=C(/C=C/c1cccc(S(=O)(=O)Nc2ccccc2)c1)NO [Belinostat]

Structure (SMILES): CN(Cc1ccc(C(=O)NO)cc1)S(=O)(=O)c1c(F)c(F)c(F)c(F)c1F [Compound I-2, N-hydroxy-4-((2,3,4,5,6-pentafluoro-N-methylphenylsulfonamido)methyl)benzamide]
IC50 (MV-4-11; MV4-11, Table 4): 1.04 µM

Structure (SMILES): O=C(NO)c1ccc(CN(Cc2ccc(F)cc2)S(=O)(=O)c2c(F)c(F)c(F)c(F)c2F)cc1 [Compound I-9, N-hydroxy-4-((2,3,4,5,6-pentafluoro-N-(4-fluorobenzyl)phenylsulfonamido)methyl)benzamide]
IC50 (MOLM-13; Table 4): 5.2 µM

Structure (SMILES): O=C(NO)c1ccc(CN(Cc2ccc(C(F)(F)F)cc2)S(=O)(=O)c2c(F)c(F)c(F)c(F)c2F)cc1 [Compound I-10, N-hydroxy-4-((2,3,4,5,6-pentafluoro-N-(4-(trifluoromethyl)benzyl)phenylsulfonamido)methyl)benzamide]
IC50 (MOLM-13; Table 4): 9.1 µM

Structure (SMILES): O=C(NO)c1ccc(CN(Cc2cc(F)c(F)c(F)c2)S(=O)(=O)c2c(F)c(F)c(F)c(F)c2F)cc1 [Compound I-11, N-hydroxy-4-((2,3,4,5,6-pentafluoro-N-(3,4,5-trifluorobenzyl)phenylsulfonamido)methyl)benzamide]
IC50 (MOLM-13; Table 4): 3.5 µM

Structure (SMILES): O=C(NO)c1ccc(CN(C2CC2)S(=O)(=O)c2c(F)c(F)cc(F)c2F)cc1 [Compound I-14, 4-((N-cyclopropyl-2,3,5,6-tetrafluorophenylsulfonamido)methyl)-N-hydroxybenzamide]
IC50 (MV-4-11; MV4-11, Table 4): 5.7 µM

Structure (SMILES): O=C(NO)c1ccc(CN(Cc2ccccc2)S(=O)(=O)c2cc(F)c(F)c(F)c2F)cc1 [Compound I-16, 4-((N-benzyl-2,3,4,5-tetrafluorophenylsulfonamido)methyl)-N-hydroxybenzamide]
IC50 (MV-4-11; MV4-11, Table 4): 0.19 µM

Structure (SMILES): O=C(NO)c1ccc(CN(Cc2ccccn2)S(=O)(=O)c2cc(F)c(F)c(F)c2F)cc1 [Compound I-20, N-hydroxy-4-((2,3,4,5-tetrafluoro-N-(pyridin-2-ylmethyl)phenylsulfonamido)methyl)benzamide]
IC50 (MV-4-11; MV4-11, Table 4): 0.48 µM

Structure (SMILES): Cc1ccc(CN(Cc2ccc(C(=O)NO)cc2)S(=O)(=O)c2cc(F)c(F)c(F)c2F)c(F)c1 [Compound I-26, N-hydroxy-4-((2,3,4,5-tetrafluoro-N-(2-fluoro-4-methylbenzyl)phenylsulfonamido)methyl)benzamide]
IC50 (MV-4-11; MV4-11, Table 4): 1.87 µM

Structure (SMILES): O=C(NO)c1ccc(CN(Cc2ccc(F)nc2)S(=O)(=O)c2cc(F)c(F)c(F)c2F)cc1 [Compound I-27, N-hydroxy-4-((2,3,4,5-tetrafluoro-N-((6-fluoropyridin-3-yl)methyl)phenylsulfonamido)methyl)benzamide]
IC50 (MV-4-11; MV4-11, Table 4): 0.843 µM

Structure (SMILES): O=C(NO)c1ccc(CN(Cc2ccncc2F)S(=O)(=O)c2cc(F)c(F)c(F)c2F)cc1 [Compound I-28, N-hydroxy-4-((2,3,4,5-tetrafluoro-N-((3-fluoropyridin-4-yl)methyl)phenylsulfonamido)methyl)benzamide]
IC50 (MOLM-13; Table 4): 0.663 µM | IC50 (MV-4-11; MV4-11, Table 4): 0.596 µM

Structure (SMILES): O=C(NO)c1ccc(CN(C2CC2)S(=O)(=O)c2c(F)cc(F)c(Cl)c2F)cc1 [Compound I-42, 4-((3-chloro-N-cyclopropyl-2,4,6-trifluorophenylsulfonamido)methyl)-N-hydroxybenzamide]
IC50 (MV-4-11; MV4-11, Table 4): 0.741 µM

Structure (SMILES): O=C(/C=C/c1ccc(CN(Cc2ccccc2)S(=O)(=O)c2cc(F)c(F)c(F)c2F)cc1)NO [Compound I-67]
IC50 (MV-4-11; MV4-11, Table 5): 1.14 µM

Structure (SMILES): O=C(/C=C/c1ccc(CN(Cc2ccc(F)cc2)S(=O)(=O)c2cc(F)c(F)c(F)c2F)cc1)NO [Compound I-68]
IC50 (MV-4-11; MV4-11, Table 5): 0.8 µM

Structure (SMILES): CN(C)c1ccc(CN(Cc2ccc(/C=C/C(=O)NO)cc2)S(=O)(=O)c2cc(F)c(F)c(F)c2F)cc1 [Compound I-69]
IC50 (MOLM-13; Table 5): 1.8 µM | IC50 (MV-4-11; MV4-11, Table 5): 1.6 µM

Structure (SMILES): O=C(Cc1ccc(CN(C2CCCCC2)S(=O)(=O)c2cc(F)c(F)c(F)c2F)cc1)NO [Compound I-72]
IC50 (MV-4-11; MV4-11, Table 5): 0.57 µM

Structure (SMILES): Cc1ccc(CN(Cc2ccc(CC(=O)NO)cc2)S(=O)(=O)c2cc(F)c(F)c(F)c2F)cc1F [Compound I-73]
IC50 (MV-4-11; MV4-11, Table 5): 1.09 µM

Structure (SMILES): COc1cc(/C=C/C(=O)NO)ccc1CN(Cc1cccnc1)S(=O)(=O)c1cc(F)c(F)c(F)c1F [Compound I-78]
IC50 (MOLM-13; Table 5): 2.9 µM | IC50 (MV-4-11; MV4-11, Table 5): 1.3 µM

Structure (SMILES): O=C(/C=C/c1ccc(CN(C(=O)c2c(F)c(F)c(F)c(F)c2F)C2CC2)cc1)NO [Compound I-83, (E)-N-cyclopropyl-2,3,4,5,6-pentafluoro-N-(4-(3-(hydroxyamino)-3-oxoprop-1-en-1-yl)benzyl)benzamide]
IC50 (MV-4-11; MV4-11, Table 5): 0.75 µM

half-life [1]: 1.98 h | Remaining Percentage (%) 0 min [1]: 100% | Remaining Percentage (%) 15 min [1]: 98.6% | Remaining Percentage (%) 30 min [1]: 89.0% | Remaining Percentage (%) 45 min [1]: 74.9% | Remaining Percentage (%) 60 min [1]: 68.4% | Remaining Percentage (%) 120 min [1]: 52.1%
Structure (SMILES): O=C(CCCCCCC(=O)Nc1ccccc1)NO [Vorinostat]
